Measurements as given in patent US20250214993A1, “AROMATIC RING COMPOUND AND USE THEREOF” (SHANGHAI SHIJIANG BIOTECHNOLOGY CO., LTD, priority 2022, published 2025).
Like-named read-outs stand apart in the source and are kept apart here.

Assays:
[1] = test system: mitochondria permeability transition pore (mPTP); details: Daoy cell with PPIF shRNA vector; CsA −, H2O2 +; untreated = 100
[2] = test system: mitochondria permeability transition pore (mPTP); type: cell-based, human; details: Daoy cell with empty virus vector; CsA −, H2O2 +; untreated = 100
[3] = test system: mitochondria permeability transition pore (mPTP); assay: Mitochondria membrane potential difference by TMRM in Daoy cell; type: cell-based, human; details: CsA −, H2O2 +, untreated = 100
mPTP-inactive Daoy cell = assay: Cell viability (Promega CellTiter-Glo), IC50 on mPTP-inactive Daoy cell (PPIF shRNA); type: cell-based; details: Homo sapiens; Daoy cell transfected with PPIF shRNA vector
ov-NNMT NCI-H82 cell = assay: Cell viability (Promega CellTiter-Glo, intracellular ATP), IC50 on NNMT-overexpressing NCI-H82 cell; type: cell-based; details: Homo sapiens; NCI-H82 cell overexpressing NNMT protein
Summary of the method: (§1)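 Con-NCI-H82 cells and NCI-H82 cells overexpressing NNMT via a viral vector were grown in RPMI1640 with 10% FBS. Viability was read as intracellular ATP by CellTiter-Glo luminescence, giving IC50.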

Con-NCI-H82 cell = assay: Cell viability (Promega CellTiter-Glo, intracellular ATP), IC50 on Con-NCI-H82 cell; type: cell-based; details: Homo sapiens; normal untreated NCI-H82 cell (control)
Summary of the method: as §1

mPTP-active Daoy cell = assay: Cell viability (Promega CellTiter-Glo), IC50 on mPTP-active Daoy cell; type: cell-based; details: Homo sapiens; Daoy cell transfected with empty virus vector

In the case of OO [Compound H2O2, H2O2], the “Relative TMRM signal intensity (%), mean value” [1] is reported as 95%, the “Relative TMRM signal intensity (%), mean value” [2] is reported as 79% and the “Relative TMRM signal intensity (%), mean value” [3] is reported as 82%.
O=C1c2cc(OC(F)(F)F)ccc2CCC1n1ccc2c[n+](Cc3ccccc3)ccc21 (centres unmarked) [AB27191] showed an IC50 (mPTP-inactive Daoy cell) of 40 nM, an IC50 (ov-NNMT NCI-H82 cell) of 184 nM and an IC50 (Con-NCI-H82 cell) of 10 nM. The IC50 (mPTP-active Daoy cell) was 250 nM.
Compound Cc1cn(C2CCc3ccc(F)cc3C2=O)c2cc[n+](C(C)c3ccccc3)cc12 (centres unmarked) [AB27459] has an IC50 (mPTP-inactive Daoy cell) of 840 nM, an IC50 (ov-NNMT NCI-H82 cell) of 1240 nM and an IC50 (Con-NCI-H82 cell) of 86 nM. It also gave an IC50 (mPTP-active Daoy cell) of 2430 nM.
